Measurements: ChEMBL document CHEMBL1201862, “PubChem BioAssay data set” (2004)
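Step 1: Grow cells in 96-well plates. Step 2: Expose to compound for 48 hours at 5 concentrations. Step 3: Interpolate endpoints linearly; if unreached, use highest concentration. At the GI50, growth is halved.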 The source made the active and inactive calls. Cut-off read from the data, not from the text of the source: active = GI50 up to about 1.1 µM and inactive = higher.

Tests used:
Test in all cases: DTP human tumour cell line panel, 48 h
[1] = tested on: 786-0
[2] = tested on: ACHN
[3] = tested on: CAKI-1
[4] = tested on: CCRF-CEM
[5] = tested on: EKVX
[6] = tested on: HCT-15
[7] = tested on: MDA-MB-435
[8] = tested on: MOLT-4
[9] = tested on: NCI-H226
[10] = tested on: NCI-H23
[11] = tested on: NCI-H522
[12] = tested on: OVCAR-3
[13] = tested on: RXF 393
[14] = tested on: SF-295
[15] = tested on: SF-539
[16] = tested on: SK-MEL-5
[17] = tested on: TK-10
[18] = tested on: UACC-257
[19] = tested on: UACC-62
[20] = tested on: UO-31

Measured: GI50

CC(=O)OCC1OC(OCCCOP(=S)(OCCC#N)OCC2OC(n3ccc(N)nc3=O)C(OC(=O)c3ccccc3)C2OC(=O)c2ccccc2)C(OC(C)=O)C(OC(C)=O)C1OC(C)=O (stereo not given)
> 100 µM: [6]
inactive: [1] > 100 µM | [2] > 100 µM | [3] > 100 µM | [4] > 100 µM | [5] > 100 µM | [7] > 100 µM | [8] > 100 µM | [9] > 100 µM | [10] > 100 µM | [11] > 100 µM | [12] > 100 µM | [13] > 100 µM | [14] > 100 µM | [15] > 100 µM | [16] > 100 µM | [17] > 100 µM | [18] > 100 µM | [19] > 100 µM | [20] > 100 µM

CCOC(=O)CCC(NC(=O)c1ccc(Nc2cnc3cc(C(F)(F)F)ccc3n2)cc1)C(=O)OCC (stereo not given)
> 100 µM: [6]
inactive: [1] 9.75 µM | [2] 63.2 µM | [3] 24.7 µM | [4] > 100 µM | [5] > 84.7 µM | [7] > 100 µM | [8] > 100 µM | [9] > 79.6 µM | [10] 27.7 µM | [11] 30.3 µM | [12] > 100 µM | [13] 3.55 µM | [14] 12.8 µM | [15] > 100 µM | [16] > 100 µM | [17] > 87.9 µM | [18] > 100 µM | [19] > 10 µM | [20] > 100 µM

Clc1cc(C(c2cc(Cl)sc2Cl)c2cc(Cl)sc2Cl)c(Cl)s1
inactive: [1] > 100 µM | [2] > 100 µM | [3] > 100 µM | [4] > 100 µM | [5] > 100 µM | [7] > 100 µM | [8] > 81.7 µM | [9] > 100 µM | [10] > 100 µM | [11] > 100 µM | [12] > 100 µM | [13] > 100 µM | [14] > 100 µM | [15] > 100 µM | [16] > 100 µM | [17] > 100 µM | [18] > 100 µM | [19] > 100 µM | [20] > 100 µM
> 100 µM: [6]

CC(C)(C)C(=O)OCOP(=O)(OCOC(=O)C(C)(C)C)OCC1OC(n2ccc(=O)[nH]c2=O)C(N=[N+]=[N-])C1O (stereo not given)
3.07 µM: [6]
active: [12] 0.4 µM
inactive: [1] 2.46 µM | [2] 4.2 µM | [3] 10.4 µM | [4] 2.53 µM | [5] 7.59 µM | [7] 3.71 µM | [8] 4.01 µM | [9] 9.29 µM | [10] 4.45 µM | [11] 4.92 µM | [13] 2.3 µM | [14] 12.7 µM | [15] 2.43 µM | [16] 4.9 µM | [17] 10.5 µM | [18] 5.37 µM | [19] 2.88 µM | [20] 1.62 µM

COc1cc(OC)c2nc(C)c3c(c2c1)SCC3
42.3 µM: [6]
inactive: [1] 19.5 µM | [2] 18.7 µM | [3] 16.1 µM | [4] > 100 µM | [5] 10.1 µM | [7] 25.5 µM | [8] > 100 µM | [9] 20.4 µM | [10] 31.9 µM | [11] 36.1 µM | [12] 19.2 µM | [13] 24.3 µM | [14] 27.5 µM | [15] 18.5 µM | [16] 21.3 µM | [17] 19.5 µM | [18] 31.7 µM | [19] 22.9 µM | [20] 21.9 µM

CCOC(=O)NC(OC)(C(F)(F)F)C(F)(F)F
> 100 µM: [6]
inactive: [1] > 100 µM | [2] > 100 µM | [3] > 100 µM | [4] > 100 µM | [5] > 100 µM | [7] > 100 µM | [8] > 100 µM | [9] > 100 µM | [10] > 100 µM | [11] > 100 µM | [12] > 100 µM | [13] > 100 µM | [14] > 100 µM | [15] > 100 µM | [16] > 100 µM | [17] > 100 µM | [18] > 100 µM | [19] > 100 µM | [20] > 100 µM

Nc1ccc2c(c1)NC(=O)[C@@H]1CCCN1C2=O
> 100 µM: [6]
inactive: [1] > 100 µM | [2] > 100 µM | [3] > 100 µM | [4] > 100 µM | [5] > 100 µM | [7] > 100 µM | [8] > 100 µM | [9] > 100 µM | [10] > 100 µM | [11] > 100 µM | [12] > 100 µM | [13] > 100 µM | [14] > 100 µM | [15] > 100 µM | [16] > 100 µM | [17] > 100 µM | [18] > 100 µM | [19] > 100 µM | [20] > 100 µM

O=C1OC([C@H](O)c2cccnc2)c2ccccc21 (stereo not given in full)
> 10 µM: [6]
inactive: [1] > 10 µM | [2] > 10 µM | [3] > 10 µM | [4] > 10 µM | [5] > 10 µM | [7] > 10 µM | [8] > 10 µM | [9] > 10 µM | [10] > 10 µM | [11] > 10 µM | [12] > 10 µM | [13] > 10 µM | [14] > 10 µM | [15] > 10 µM | [16] > 10 µM | [17] > 10 µM | [18] > 10 µM | [19] > 10 µM | [20] > 10 µM

CN(C)c1ccc(C2CC(C)(O)Oc3cc4c(cc32)OCO4)cc1 (stereo not given)
inactive: [1] 43.7 µM | [2] 70.6 µM | [3] 66.2 µM | [4] 33.6 µM | [5] 48.9 µM | [7] 13.6 µM | [8] > 100 µM | [9] 3.86 µM | [10] 71.8 µM | [11] 19.1 µM | [12] 64.3 µM | [13] 32.7 µM | [14] 29.1 µM | [15] 34.1 µM | [16] 30.6 µM | [17] 59.3 µM | [18] 62.4 µM | [19] 21.6 µM | [20] 30.7 µM
29.9 µM: [6]

NC(=O)NC(=O)c1cccc(NC(=O)CF)c1
inactive: [1] > 100 µM | [2] > 100 µM | [3] > 100 µM | [4] > 100 µM | [5] > 100 µM | [7] > 100 µM | [8] > 100 µM | [9] 73.5 µM | [10] > 100 µM | [11] > 100 µM | [12] > 100 µM | [13] > 100 µM | [14] > 100 µM | [15] > 100 µM | [16] > 100 µM | [17] > 100 µM | [18] > 100 µM | [19] > 100 µM | [20] 31 µM
> 100 µM: [6]

NNC(=O)c1nn[nH]c1SSc1[nH]nnc1C(=O)NN
inactive: [1] > 100 µM | [2] > 100 µM | [3] > 100 µM | [4] > 100 µM | [5] > 100 µM | [7] > 100 µM | [8] > 100 µM | [9] > 100 µM | [10] > 100 µM | [11] > 100 µM | [12] > 100 µM | [13] > 100 µM | [14] > 100 µM | [15] > 100 µM | [16] > 100 µM | [17] > 100 µM | [18] > 100 µM | [19] > 100 µM | [20] > 100 µM
> 100 µM: [6]

O=[N+]([O-])/C=C/c1cc(Cl)c(/C=C/[N+](=O)[O-])cc1Cl
active: [4] 0.8 µM | [8] 0.434 µM | [11] 0.975 µM
inactive: [1] 1.16 µM | [2] 1.57 µM | [3] 1.89 µM | [5] 1.91 µM | [7] 1.82 µM | [9] 2.06 µM | [10] 2.61 µM | [12] 1.97 µM | [13] 1.46 µM | [14] 4.68 µM | [15] 1.86 µM | [16] 3.53 µM | [17] 2.12 µM | [18] 1.89 µM | [19] 1.91 µM | [20] 1.49 µM
1.01 µM: [6]

c1ccc([P+](Cc2ccc(C[P+](c3ccccc3)(c3ccccc3)c3ccccc3)s2)(c2ccccc2)c2ccccc2)cc1
> 100 µM: [6]
inactive: [1] > 100 µM | [2] > 100 µM | [3] > 100 µM | [4] > 100 µM | [5] > 100 µM | [7] > 100 µM | [8] > 100 µM | [9] > 100 µM | [10] > 100 µM | [11] > 100 µM | [12] > 100 µM | [13] > 100 µM | [14] > 100 µM | [15] > 100 µM | [16] > 100 µM | [17] > 100 µM | [18] > 100 µM | [19] > 100 µM | [20] > 100 µM

Clc1ccc2c(NCCCCCCNc3ccnc4cc(Cl)ccc34)ccnc2c1
inactive: [1] 1.97 µM | [2] 3.67 µM | [3] 9.04 µM | [4] 2.34 µM | [5] 6.97 µM | [7] 6.04 µM | [8] 2.45 µM | [9] 10.4 µM | [10] 12.3 µM | [11] 1.69 µM | [12] 1.84 µM | [13] 3.01 µM | [14] 2.11 µM | [15] 1.87 µM | [16] 3.34 µM | [17] 6.78 µM | [18] 7.57 µM | [19] 3.86 µM | [20] 4.83 µM
2.88 µM: [6]
